Data as given in the supplement of paper PMC10307832.

Key:
Experiment in all cases: relative viability (nuclei count vs DMSO), 5 days (fraction); higher = more cells survive
[1] = tested on: NCI-H2170
Method in brief: (§1)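 Medians of duplicate plates are given as relative viability. That measure is the nuclei count in treated wells divided by the count in vehicle wells. Counts were taken on 4× images of lung cancer cell lines in 1536-well plates, 5 days after pin-tool dosing the day after seeding with one drug alone or a fixed anchor-drug dose plus five library-drug doses (not always all listed) in √10 steps.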

[2] = tested on: NCI-H441
Method in brief: as §1

[3] = tested on: NCI-H1666
Method in brief: as §1

[4] = tested on: NCI-H727
Method in brief: as §1

[5] = tested on: EPLC-272H
Method in brief: as §1

[6] = tested on: NCI-H838
Method in brief: as §1

[7] = tested on: LCLC-103H
Method in brief: as §1

[8] = tested on: PC-3 [JPC-3]
Method in brief: as §1

[9] = tested on: NCI-H1792
Method in brief: as §1

[10] = tested on: NCI-H2342
Method in brief: as §1

[11] = tested on: NCI-H2228
Method in brief: as §1

[12] = tested on: NCI-H1755
Method in brief: as §1

[13] = tested on: EMC-BAC-2
Method in brief: as §1

[14] = tested on: HCC-78
Method in brief: as §1

[15] = tested on: SK-MES-1
Method in brief: as §1

[16] = tested on: NCI-H1793
Method in brief: as §1

[17] = tested on: 201T
Method in brief: as §1

[18] = tested on: NCI-H2126
Method in brief: as §1

[19] = tested on: NCI-H1355
Method in brief: as §1

[20] = tested on: SW 1573
Method in brief: as §1

[21] = tested on: NCI-H520
Method in brief: as §1

[22] = tested on: NCI-H1975
Method in brief: as §1

With `Nc1cccc2c1CN(C1CCC(=O)NC1=O)C2=O` (configuration not stated) [Lenalidomide] + CC(=O)c1c(C)c2cnc(Nc3ccc(N4CCNCC4)cn3)nc2n(C2CCCC2)c1=O [Palbociclib] (partner 0.5 µM) the relative viability ([1]; first compound 0.253 µM) was 0.436, the relative viability ([1]; first compound 0.8 µM) was 0.374 and the relative viability ([1]; first compound 2.53 µM) was 0.433. The relative viability ([1]; first compound 8 µM) was 0.314, the relative viability ([2]; first compound 0.253 µM) was 0.239 and the relative viability ([2]; first compound 0.8 µM) was 0.205. The relative viability ([2]; first compound 2.53 µM) was 0.264, the relative viability ([2]; first compound 8 µM) was 0.202 and the relative viability ([3]; first compound 0.253 µM) was 0.647. For the same compound, the relative viability ([3]; first compound 0.8 µM) was 0.584, the relative viability ([3]; first compound 2.53 µM) was 0.646 and the relative viability ([3]; first compound 8 µM) was 0.642. For the same compound, the relative viability ([4]; first compound 0.253 µM) was 0.697, the relative viability ([4]; first compound 0.8 µM) was 0.684 and the relative viability ([4]; first compound 2.53 µM) was 0.64. For the same compound, the relative viability ([4]; first compound 8 µM) was 0.631, the relative viability ([5]; first compound 0.253 µM) was 0.34 and the relative viability ([5]; first compound 0.8 µM) was 0.383. The relative viability ([5]; first compound 2.53 µM) was 0.333, the relative viability ([5]; first compound 8 µM) was 0.322 and the relative viability ([6]; first compound 0.253 µM) was 0.172. For the same compound, the relative viability ([6]; first compound 0.8 µM) was 0.19, the relative viability ([6]; first compound 2.53 µM) was 0.256 and the relative viability ([6]; first compound 8 µM) was 0.18. The relative viability ([7]; first compound 0.253 µM) was 0.484, the relative viability ([7]; first compound 0.8 µM) was 0.459 and the relative viability ([7]; first compound 2.53 µM) was 0.464. For the same compound, the relative viability ([7]; first compound 8 µM) was 0.47, the relative viability ([8]; first compound 0.253 µM) was 0.545 and the relative viability ([8]; first compound 0.8 µM) was 0.511. It also gave a relative viability ([8]; first compound 2.53 µM) of 0.548, a relative viability ([8]; first compound 8 µM) of 0.57 and a relative viability ([9]; first compound 0.253 µM) of 0.656. For the same compound, the relative viability ([9]; first compound 0.8 µM) was 0.754, the relative viability ([9]; first compound 2.53 µM) was 0.745 and the relative viability ([9]; first compound 8 µM) was 0.675. It also gave a relative viability ([10]; first compound 0.253 µM) of 0.551, a relative viability ([10]; first compound 0.8 µM) of 0.53 and a relative viability ([10]; first compound 2.53 µM) of 0.502. It also gave a relative viability ([10]; first compound 8 µM) of 0.476, a relative viability ([11]; first compound 0.253 µM) of 1.05 and a relative viability ([11]; first compound 0.8 µM) of 0.36. For the same compound, the relative viability ([11]; first compound 2.53 µM) was 1.04, the relative viability ([11]; first compound 8 µM) was 0.657 and the relative viability ([12]; first compound 0.253 µM) was 0.451. For the same compound, the relative viability ([12]; first compound 0.8 µM) was 0.434, the relative viability ([12]; first compound 2.53 µM) was 0.429 and the relative viability ([12]; first compound 8 µM) was 0.441. The relative viability ([13]; first compound 0.253 µM) was 0.503, the relative viability ([13]; first compound 0.8 µM) was 0.473 and the relative viability ([13]; first compound 2.53 µM) was 0.52. For the same compound, the relative viability ([13]; first compound 8 µM) was 0.448, the relative viability ([14]; first compound 0.253 µM) was 0.48 and the relative viability ([14]; first compound 0.8 µM) was 0.416. For the same compound, the relative viability ([14]; first compound 2.53 µM) was 0.463, the relative viability ([14]; first compound 8 µM) was 0.47 and the relative viability ([15]; first compound 0.253 µM) was 0.317. For the same compound, the relative viability ([15]; first compound 0.8 µM) was 0.312, the relative viability ([15]; first compound 2.53 µM) was 0.278 and the relative viability ([15]; first compound 8 µM) was 0.156. It also gave a relative viability ([16]; first compound 0.253 µM) of 0.363, a relative viability ([16]; first compound 2.53 µM) of 0.296 and a relative viability ([16]; first compound 8 µM) of 0.256. It also gave a relative viability ([17]; first compound 0.253 µM) of 0.394, a relative viability ([17]; first compound 0.8 µM) of 0.359 and a relative viability ([17]; first compound 2.53 µM) of 0.38. The relative viability ([17]; first compound 8 µM) was 0.351, the relative viability ([18]; first compound 0.253 µM) was 0.359 and the relative viability ([18]; first compound 0.8 µM) was 0.383. For the same compound, the relative viability ([18]; first compound 2.53 µM) was 0.328, the relative viability ([18]; first compound 8 µM) was 0.332 and the relative viability ([19]; first compound 0.253 µM) was 0.397. It also gave a relative viability ([19]; first compound 0.8 µM) of 0.372, a relative viability ([19]; first compound 2.53 µM) of 0.413 and a relative viability ([19]; first compound 8 µM) of 0.286. For the same compound, the relative viability ([20]; first compound 0.253 µM) was 0.239, the relative viability ([20]; first compound 0.8 µM) was 0.384 and the relative viability ([20]; first compound 2.53 µM) was 0.399. For the same compound, the relative viability ([20]; first compound 8 µM) was 0.421, the relative viability ([21]; first compound 0.253 µM) was 0.225 and the relative viability ([21]; first compound 0.8 µM) was 0.216. For the same compound, the relative viability ([21]; first compound 2.53 µM) was 0.236, the relative viability ([21]; first compound 8 µM) was 0.2 and the relative viability ([22]; first compound 0.253 µM) was 0.591. The relative viability ([22]; first compound 0.8 µM) was 0.312, the relative viability ([22]; first compound 2.53 µM) was 0.711 and the relative viability ([22]; first compound 8 µM) was 0.399.

Compound `Nc1cccc2c1CN(C1CCC(=O)NC1=O)C2=O` (configuration not stated) [Lenalidomide] + COc1cccc2cc(-c3nc([C@H]4CC[C@H](C(=O)O)CC4)n4ncnc(N)c34)[nH]c12 [OSI-027] (partner 0.5 µM) has a relative viability ([1]; first compound 0.253 µM) of 0.691, a relative viability ([1]; first compound 0.8 µM) of 0.612 and a relative viability ([1]; first compound 2.53 µM) of 0.817. It also gave a relative viability ([1]; first compound 8 µM) of 0.588, a relative viability ([2]; first compound 0.253 µM) of 0.485 and a relative viability ([2]; first compound 0.8 µM) of 0.666. The relative viability ([2]; first compound 2.53 µM) was 0.876, the relative viability ([2]; first compound 8 µM) was 0.631 and the relative viability ([3]; first compound 0.253 µM) was 0.822. For the same compound, the relative viability ([3]; first compound 2.53 µM) was 0.927, the relative viability ([3]; first compound 8 µM) was 0.894 and the relative viability ([4]; first compound 0.253 µM) was 0.523. The relative viability ([4]; first compound 0.8 µM) was 0.446, the relative viability ([4]; first compound 2.53 µM) was 0.609 and the relative viability ([4]; first compound 8 µM) was 0.562. For the same compound, the relative viability ([5]; first compound 0.253 µM) was 0.297, the relative viability ([5]; first compound 0.8 µM) was 0.339 and the relative viability ([5]; first compound 2.53 µM) was 0.292. For the same compound, the relative viability ([5]; first compound 8 µM) was 0.283, the relative viability ([6]; first compound 0.253 µM) was 0.399 and the relative viability ([6]; first compound 0.8 µM) was 0.34. The relative viability ([6]; first compound 2.53 µM) was 0.459, the relative viability ([6]; first compound 8 µM) was 0.383 and the relative viability ([7]; first compound 0.253 µM) was 0.433. The relative viability ([7]; first compound 0.8 µM) was 0.433, the relative viability ([7]; first compound 2.53 µM) was 0.512 and the relative viability ([7]; first compound 8 µM) was 0.473. For the same compound, the relative viability ([8]; first compound 0.253 µM) was 0.832, the relative viability ([8]; first compound 0.8 µM) was 0.569 and the relative viability ([8]; first compound 2.53 µM) was 0.769. The relative viability ([8]; first compound 8 µM) was 0.818, the relative viability ([9]; first compound 0.253 µM) was 0.682 and the relative viability ([9]; first compound 0.8 µM) was 0.709. For the same compound, the relative viability ([9]; first compound 2.53 µM) was 0.722, the relative viability ([9]; first compound 8 µM) was 0.756 and the relative viability ([10]; first compound 0.253 µM) was 0.67. For the same compound, the relative viability ([10]; first compound 0.8 µM) was 0.572, the relative viability ([10]; first compound 2.53 µM) was 0.57 and the relative viability ([10]; first compound 8 µM) was 0.626. It also gave a relative viability ([11]; first compound 0.253 µM) of 0.568, a relative viability ([11]; first compound 0.8 µM) of 0.641 and a relative viability ([11]; first compound 2.53 µM) of 0.672. The relative viability ([11]; first compound 8 µM) was 0.473, the relative viability ([12]; first compound 0.253 µM) was 0.757 and the relative viability ([12]; first compound 0.8 µM) was 0.72. The relative viability ([12]; first compound 2.53 µM) was 0.79, the relative viability ([12]; first compound 8 µM) was 0.67 and the relative viability ([13]; first compound 0.253 µM) was 0.38. The relative viability ([13]; first compound 0.8 µM) was 0.349, the relative viability ([13]; first compound 2.53 µM) was 0.393 and the relative viability ([13]; first compound 8 µM) was 0.344. For the same compound, the relative viability ([14]; first compound 0.253 µM) was 0.418, the relative viability ([14]; first compound 0.8 µM) was 0.35 and the relative viability ([14]; first compound 2.53 µM) was 0.376. For the same compound, the relative viability ([14]; first compound 8 µM) was 0.382, the relative viability ([15]; first compound 0.253 µM) was 0.573 and the relative viability ([15]; first compound 0.8 µM) was 0.703. It also gave a relative viability ([15]; first compound 2.53 µM) of 0.63, a relative viability ([15]; first compound 8 µM) of 0.613 and a relative viability ([16]; first compound 0.253 µM) of 0.359. For the same compound, the relative viability ([16]; first compound 2.53 µM) was 0.319, the relative viability ([16]; first compound 8 µM) was 0.244 and the relative viability ([17]; first compound 0.253 µM) was 0.767. For the same compound, the relative viability ([17]; first compound 0.8 µM) was 0.494, the relative viability ([17]; first compound 2.53 µM) was 0.799 and the relative viability ([17]; first compound 8 µM) was 0.791. The relative viability ([18]; first compound 0.253 µM) was 0.66, the relative viability ([18]; first compound 0.8 µM) was 0.609 and the relative viability ([18]; first compound 2.53 µM) was 0.663. The relative viability ([18]; first compound 8 µM) was 0.593, the relative viability ([19]; first compound 0.253 µM) was 0.449 and the relative viability ([19]; first compound 2.53 µM) was 0.436. The relative viability ([19]; first compound 8 µM) was 0.362, the relative viability ([20]; first compound 0.253 µM) was 0.573 and the relative viability ([20]; first compound 0.8 µM) was 0.712. The relative viability ([20]; first compound 2.53 µM) was 0.792, the relative viability ([20]; first compound 8 µM) was 0.565 and the relative viability ([21]; first compound 0.253 µM) was 0.284. The relative viability ([21]; first compound 0.8 µM) was 0.25, the relative viability ([21]; first compound 2.53 µM) was 0.311 and the relative viability ([21]; first compound 8 µM) was 0.281. The relative viability ([22]; first compound 0.253 µM) was 0.817, the relative viability ([22]; first compound 0.8 µM) was 0.661 and the relative viability ([22]; first compound 2.53 µM) was 0.79. It also gave a relative viability ([22]; first compound 8 µM) of 0.595.
